# Measured values taken from US20260137742A1, “Composition for Activating Transient Receptor Potential Ankyrin 1, and Composition for Enhancing Food Consumption and/or Ameliorating Decreased Appetite” (HOUSE FOODS GROUP INC., priority 2022, published 2026).
# Key:
# human TRPA1 (hTRPA1) [1] = target: T1, human TRPA1 (hTRPA1) (Homo sapiens, UniProt O75762); experiment: Intracellular Ca2+ Imaging Assay 2 (stepwise concentrations 0.01 μM-300 μM); format: cell-based
# T1 construct: expressed in transfected cells
# T1 sequence (O75762 whole entry): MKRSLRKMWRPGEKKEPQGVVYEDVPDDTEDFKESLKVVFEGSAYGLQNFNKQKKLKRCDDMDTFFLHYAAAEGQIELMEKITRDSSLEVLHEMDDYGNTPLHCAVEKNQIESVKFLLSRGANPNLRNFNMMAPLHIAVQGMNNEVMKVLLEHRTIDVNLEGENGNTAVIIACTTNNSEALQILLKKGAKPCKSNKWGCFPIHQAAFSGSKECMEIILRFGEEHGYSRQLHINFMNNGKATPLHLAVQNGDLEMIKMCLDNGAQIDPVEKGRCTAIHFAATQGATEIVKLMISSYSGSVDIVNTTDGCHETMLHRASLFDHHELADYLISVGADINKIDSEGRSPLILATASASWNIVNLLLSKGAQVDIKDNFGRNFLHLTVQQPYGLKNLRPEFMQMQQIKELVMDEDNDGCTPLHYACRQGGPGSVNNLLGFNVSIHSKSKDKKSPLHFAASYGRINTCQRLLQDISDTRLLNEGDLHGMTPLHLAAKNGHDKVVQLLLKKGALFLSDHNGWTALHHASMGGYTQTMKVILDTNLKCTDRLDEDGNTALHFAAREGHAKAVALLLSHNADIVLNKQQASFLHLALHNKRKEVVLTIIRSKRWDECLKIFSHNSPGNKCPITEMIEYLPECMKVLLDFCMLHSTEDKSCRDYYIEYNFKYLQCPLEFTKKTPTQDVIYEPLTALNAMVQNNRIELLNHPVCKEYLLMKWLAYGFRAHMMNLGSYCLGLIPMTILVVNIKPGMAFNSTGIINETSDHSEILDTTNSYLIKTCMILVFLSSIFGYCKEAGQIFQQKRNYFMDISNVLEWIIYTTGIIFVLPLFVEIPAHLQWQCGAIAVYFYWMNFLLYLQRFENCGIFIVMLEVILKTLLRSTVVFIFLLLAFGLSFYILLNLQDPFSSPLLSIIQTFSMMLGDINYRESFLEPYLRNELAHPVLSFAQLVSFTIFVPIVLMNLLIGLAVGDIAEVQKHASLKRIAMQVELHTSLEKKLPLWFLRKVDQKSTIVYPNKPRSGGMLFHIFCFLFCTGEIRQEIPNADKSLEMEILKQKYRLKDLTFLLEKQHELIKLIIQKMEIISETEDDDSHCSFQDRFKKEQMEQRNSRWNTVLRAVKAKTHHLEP
# Description: (§1) A DNA coding for human TRPA1 (hTRPA1) (GenBank accession number: NM_007332.3) was inserted into the pcDNA5/TO vector (Invitrogen) to create an expression vector. This expression vector was transfected into T-REx™-293 cells (Invitrogen) by a conventional method using Lipofectamine LTX (Invitrogen). Using 10% fetal bovine serum (FBS, Cytiva), 400μ/mL hygromycin B, and 5 μg/mL blasticidin S, which were added to Dulbecco's Modified Eagle Medium (DMEM, Nacalai Tesque) as drug selection medium, the transfectants were cultured by a conventional method and cloned to obtain an hTRPA1 stable expression cell line.
# (§2) Next, an hTRPA1 stable expression cell line whose hTRPA1 expression had been induced in advance by a conventional method was prepared in a 96-well clear-bottom plate; after washing each well with PBS, 50 μL of assay buffer (Hank's Balanced Salt Solution without calcium and magnesium ions, containing 1 mM CaCl2 dihydrate, 20 mM HEPES, 0.1% BSA, and 4 μM Calbryte™ 520 AM (manufactured by AAT BioQuest)) was added and incubated for 45 minutes at 33° C. After washing with assay buffer, 100 μL of assay buffer was added to each well.
# (§3) This plate was set in FlexStation3 (Molecular Devices) and the fluorescence intensity (excitation at 490 nm, emission at 525 nm) was measured every 2 seconds at 31° C.; 30 seconds after the start of measurement, 100 μL of assay buffer containing the negative control DMSO (final concentration: 20 μL/mL), the positive control allyl isothiocyanate (AITC) (AITC was dissolved in DMSO; final concentration: 30 μM), each mushroom extract solution described above, or lenthionine (manufactured by Ambeed, Inc.) (lenthionine was dissolved in DMSO; final concentration: 50 μM) was added. In addition, to determine the reference for fluorescence intensity, wells to which assay buffer containing ionomycin (final concentration: 10 µM after addition) was added were prepared instead of the test samples.
# (§4) Fluorescence intensity measurement was continued until 120 seconds from the start; the TRPA1-activating ability of the test samples and so forth was calculated using the formula below.
# Aside from using samples in which the concentrations of AITC or lenthionine were set stepwise in the range of 0.01 μM-300 μM, the procedure was the same as in (2) above; the TRPA1-activating abilities of each sample were measured.
# human TRPA1 (hTRPA1) [2] = target: T1, human TRPA1 (hTRPA1); experiment: Intracellular Ca2+ Imaging Assay 3 (with or without TRPA1-specific antagonist A-967079); format: cell-based
# Description: as §1, §2, §3, §4
# Samples of 30 μM AITC, 100 μM or 5 μM lenthionine, or DMSO were used; the test was performed either in the presence of the TRPA1-specific antagonist A-967079 (1 μM) or in the absence thereof (DMSO: 20 μL/mL); apart from this, the procedure was the same as in (3) above, and the TRPA1-activating abilities of each sample were measured.
# human TRPA1 (hTRPA1) [3] = target: T1, human TRPA1 (hTRPA1); experiment: Intracellular Ca2+ Imaging Assay 1 (TRPA1 activation rate, hTRPA1 stable expression cell line); format: cell-based; conditions: for TRPA1 Activation Rate (Mean ± Standard Error): relative to ionomycin, n = 6
# Description: as §1
# Two hundred microliters of each mushroom extract solution prepared in item 1 (1) was dispensed and the solvent was removed under vacuum using a desiccator. The dried residue left in the container was dissolved in 1 mL of assay buffer (Hank's Balanced Salt Solution without calcium and magnesium ions, containing 1 mM CaCl2 dihydrate, 20 mM HEPES, and 0.1% BSA). […]
# as §3, §4
# Fmax[s]: maximum fluorescence intensity after adding the test sample or positive control […]
# Fmax[I]: maximum fluorescence intensity after adding ionomycin
# Male ICR mice = experiment: Test 1 for Ameliorating Decreased Appetite (food intake in mice after single gastric gavage); format: in vivo; conditions: for Food Intake (Mean ± Standard Error, n = 10): lenthionine 50 μmol/kg body weight, single gastric gavage, 30 minutes after start of feeding
# Description: Male ICR mice were kept in individual cages with ALPHA-dri (Shepherd Specialty Papers) as bedding, and they were fed a powdered diet (CE-2, CLEA Japan) using a powder feeder for mice (SN-950, Shinano Seisakusho Co., Ltd.), with ad libitum feeding and free access to water, for at least one week for acclimatization. During the few days prior to the experiment, daily handling and gavage training using a feeding needle (FG4202, Fuchigami Kikai) were performed.
# As test samples, the following were prepared for each of carrier solution (containing, by volume, 5% dimethyl sulfoxide, 1% Tween80, and 94% corn oil) and lenthionine solution (carrier solution containing 0.94 mg lenthionine per 1 mL): one containing the TRPA1-specific antagonist A-967079 (1.0 μmol of A-967079 per 1 mL of the carrier solution) and one not containing it; one of these was administered to 11- to 12-week-old mice under ad libitum feeding conditions by a single gastric gavage at 9:20 a.m. at 10 mL/kg body weight. The dose of lenthionine in molar terms was 50 μmol/kg body weight. Immediately after the single gavage, at 9:30 a.m., the powdered feeder inside the cage was replaced with a new feeder loaded with powdered diet whose mass had been measured beforehand; this time point was set as the start of the feeding experiment. Thirty minutes after the start of the feeding experiment, the mass of the feeder and any spilled feed in the cage was measured, and the food intake (g) was calculated (n=10).
Compound,"TRPA1 Activation Rate (Mean ± Standard Error, n = 6) (human TRPA1 (hTRPA1) [1]; 0.01 μM) [%]","TRPA1 Activation Rate (Mean ± Standard Error, n = 6) (human TRPA1 (hTRPA1) [1]; 0.1 μM) [%]","TRPA1 Activation Rate (Mean ± Standard Error, n = 6) (human TRPA1 (hTRPA1) [1]; 0.5 μM) [%]","TRPA1 Activation Rate (Mean ± Standard Error, n = 6) (human TRPA1 (hTRPA1) [1]; 1 μM) [%]","TRPA1 Activation Rate (Mean ± Standard Error, n = 6) (human TRPA1 (hTRPA1) [1]; 5 μM) [%]","TRPA1 Activation Rate (Mean ± Standard Error, n = 6) (human TRPA1 (hTRPA1) [1]; 10 μM) [%]","TRPA1 Activation Rate (Mean ± Standard Error, n = 6) (human TRPA1 (hTRPA1) [1]; 50 μM) [%]","TRPA1 Activation Rate (Mean ± Standard Error, n = 6) (human TRPA1 (hTRPA1) [1]; 100 μM) [%]","TRPA1 Activation Rate (Mean ± Standard Error, n = 6) (human TRPA1 (hTRPA1) [1]; 300 μM) [%]",further results
"C1SSCSSS1 [Lenthionine, 1,2,3,5,6-pentathiepane]",2.64 ± 0.19,2.42 ± 0.14,10.2 ± 0.82,22.3 ± 1.04,53.8 ± 2.29,72.5 ± 2.88,92.6 ± 3.83,104 ± 1.94,118 ± 2.65,"TRPA1-activating effect, concentration dependence (in words) (human TRPA1 (hTRPA1) [1]; 0.01 μM-300 μM, compared with AITC): activated TRPA1 in a concentration-dependent manner, at similar intensity to AITC; TRPA1 Activation Rate (Mean ± Standard Error, n = 6) (human TRPA1 (hTRPA1) [2]; 5 μM, No Antagonist (DMSO 20 μL/mL)): 64.6 ± 1.38%; TRPA1 Activation Rate (Mean ± Standard Error, n = 6) (human TRPA1 (hTRPA1) [2]; 5 μM, With Antagonist A-967079 (1 μM)): 1.46 ± 0.14 %; TRPA1 Activation Rate (Mean ± Standard Error, n = 6) (human TRPA1 (hTRPA1) [2]; 100 μM, No Antagonist (DMSO 20 μL/mL)): 133 ± 1.36%; TRPA1 Activation Rate (Mean ± Standard Error, n = 6) (human TRPA1 (hTRPA1) [2]; 100 μM, With Antagonist A-967079 (1 μM)): 1.61 ± 0.37 %; TRPA1-activating effect in presence of TRPA1-specific antagonist (in words) (human TRPA1 (hTRPA1) [2]; A-967079 1 μM): inhibited by the TRPA1-specific antagonist; TRPA1-activating effect (in words) (human TRPA1 (hTRPA1) [3]; Ca2+ imaging assay 1, summary of Table 1): activated TRPA1; TRPA1 Activation Rate (Mean ± Standard Error) (human TRPA1 (hTRPA1) [3]; lenthionine 50 μM final concentration): 93.0 ± 3.70%; Food Intake (Mean ± Standard Error, n = 10) (Male ICR mice; No Antagonist): 0.117 ± 0.035 g; Food Intake (Mean ± Standard Error, n = 10) (Male ICR mice; With Antagonist A-967079 (1.0 μmol per 1 mL)): 0.025 ± 0.023 g; Food intake versus carrier solution (in words) (Male ICR mice; lenthionine solution with TRPA1-specific antagonist A-967079): no increase in food intake was observed; Food intake versus carrier solution (in words) (Male ICR mice; lenthionine solution, No Antagonist): food intake increased"
"C=CCN=C=S [AITC, allyl isothiocyanate, reference compound]",4.02 ± 0.50,5.20 ± 0.19,6.19 ± 0.32,13.0 ± 1.79,64.0 ± 4.13,85.2 ± 3.76,105 ± 1.86,117 ± 2.57,119 ± 2.74,"TRPA1 Activation Rate (Mean ± Standard Error, n = 6) (human TRPA1 (hTRPA1) [2]; 30 μM, No Antagonist (DMSO 20 μL/mL)): 156 ± 1.38%; TRPA1 Activation Rate (Mean ± Standard Error, n = 6) (human TRPA1 (hTRPA1) [2]; 30 μM, With Antagonist A-967079 (1 μM)): 1.22 ± 0.06 %; TRPA1 Activation Rate (Mean ± Standard Error) (human TRPA1 (hTRPA1) [3]; AITC 30 μM final concentration): 106 ± 1.89%"
